Where a name gives a salt, the structure may show the parent alone. Read-outs that look alike come from different tables or passages of the source.
Assays:
[1] = target: T1, HCMV DNA polymerase (UL54) (Human cytomegalovirus, UniProt P08546); experiment: HCMV DNA polymerase enzyme inhibition assay (ProFoldin, fluorescence); type: biochemical; conditions: 37° C., duplicate, max 40 μM
T1 construct: 6His (C); made in house; host or cells: Sf9 insect cells (baculovirus, pFastBac)
Experimental: The HCMV DNA polymerase assay was developed by ProFoldin. The assay detects the formation of DNA from the DNA polymerase reaction in the presence of a DNA template, dATP and dGTP. The formation of the DNA is detected by using a fluorescence method. The fluorescence intensity increases when DNA is generated by the enzyme reaction.
A time-course experiment was performed aside the enzyme inhibition assay to ensure the assay was sensitive to the enzyme inhibition. The wells for the time-course experiment contained 1 μL of DMSO and the same reaction mixture as that in the enzyme inhibition assay. The time-course data varied between plates. The reactions were stopped when the fluorescence reached a value of about 3700 for each plate.
Exemplary solid compounds (e.g., as described herein) were dissolved in DMSO to make […] stock solutions. PFA (phosphonoformic acid or phosphonomethanoic acid) was used as a positive control. The compound mother plates were prepared at 50× concentrated compound concentrations with a 2-fold serial dilution. All the exemplary compounds except PFA were diluted in DMSO. PFA was diluted in water. The maximum compound concentration was 2 mM that gave the final concentration of 40 μM in the assay. One microliter of the 50× stock solutions was transferred into the assay plates. Three copies of assay plates were prepared, two for HCMV DNA polymerase assay and one for compound background control.
The following is the protocol for enzyme inhibition performed at 37° C.:
1. Prepared a premix composed of 35347 μL of H2O, 5220 μL of 10× assay buffer and 149 μL of 350×HCMV DNA polymerase.
2. Added 39 μL of the premix into the wells with 1 μL of the compound. Incubated the mixture for at least 5 min.
3. Added 10 μL of 5×dNTP (0.1 mM), 5×DNA template solutions into each well and incubated the solution until the fluorescence value reached a value about 3700 for the DMSO-only control wells.
4. Added 50 μL of the 1× dye into the wells.
5. Read the fluorescence at emission wavelength of 535 nm and excitation wavelength of 485 nm.
For the compound background reading, added 99 μL of water in the wells with 1 μL of compounds and read the fluorescence. […] The 0% inhibition value F0 was from the wells with DMSO (no inhibitor).
The background values were subtracted from the fluorescence reading to get the net fluorescence values. The net fluorescence values were used for calculation of the percentage inhibition.
The assay was performed in duplicate for the test article at […], 1.25, 0.625, 0.313, 0.156 and 0.078 μM. The IC50 curves were obtained by fitting the percentage inhibition values with the compound concentrations using Prism GraphPad software.

[2] = tested on: HCMV US3-6-EGFP-HCMV-AD169 strain; experiment: In vitro inhibitory (antiviral) activity against HCMV, GFP reporter in MRC5 cells; type: cell-based, Human cytomegalovirus (HCMV); conditions: Human betaherpesvirus 5, AD169, MRC5, 96 h, read-out: HCMV Antiviral EC50 range
Experimental: (§1) Exemplary compounds (e.g., as described herein) were prepared as 20 mM stock solutions with DMSO. Reference compound was ganciclovir (Sigma). Compounds were tested at 8 concentrations, 3-fold serial dilutions, in duplicate for EC50 and CC50 determinations. The highest testing concentrations of the exemplary compounds and reference compound were 40 μM and 100 μM, respectively. The final concentration of DMSO in the cell culture was 0.5%.
HCMV US3-6-EGFP-HCMV-AD169 strain was obtained from Institute Pasteur of Shanghai, CAS. The virus contains GFP as a reporter of the viral replication.
(§2) MRC5 cells (ATCC CCL-171) was obtained from the ATCC and maintained in the EMEM (Sigma) supplemented with 10% FBS (HyClone), 1% L-glutamine (Gibco), 1% NEAA (Gibco), and 1% PS (Hyclone). Reagent:
In 96-well plates, MRC5 cells were seeded at 20,000 cells per well and cultured at 37° C. and 5% C02 overnight. Next day, compounds (8 concentrations, 3-fold dilutions, in duplicate) and US3-6-EGFP-HCMV-AD169 (MOI=0.1) were added to the cells. The resulting cultures were incubated at 37° C. and 5% C02 for 4 days. Fluorescence intensity was determined by Acumen Cellista (TTP LabTech). The antiviral activity of each compound was calculated based on the inhibition of expression of GFP at each concentration normalized by the cell control (cells without virus infection or compound treatment).
(§3) Antiviral activity and cytotoxicity of the compounds were expressed as % Inhibition and % Viability, respectively, and calculated with the formulas below:
Inhibition (%)=100−(Raw dataCPD−AverageCC)/(AverageVC−AverageCC)*100
(§4) Raw dataCPD indicates the values of the compound-treated wells; AverageVC, AverageCC and AverageMC indicate the average values of the virus control (cells infected with virus, without compound treatment), cell control and medium control wells, respectively.
(§5) EC50 and CC50 values were calculated using the GraphPad Prism software.

[3] = Cytotoxicity in MRC5 cells without virus infection (CCK8); type: cell-based; conditions: human
Experimental: as §1, §2
Cytotoxicity of the compounds was assessed under the same conditions, but without virus infection, in parallel. Cell viability was measured with CCK8 following the manufacturer's manual. CC50 values were then calculated based on cytotoxicity at the test concentrations normalized by the medium control (medium only).
as §3
Viability (%)=(Raw dataCPD−AverageMC)/(AverageCC−AverageMC)*100
as §4, §5

[4] = target: T2, hERG potassium channel (Homo sapiens, UniProt Q12809); experiment: Inhibition of hERG potassium channel, automated patch clamp (SyncroPatch 384PE) in CHO cells; type: cell-based
T2 construct: host or cells: CHO cells stably expressing hERG
T2 sequence (Q12809 whole entry): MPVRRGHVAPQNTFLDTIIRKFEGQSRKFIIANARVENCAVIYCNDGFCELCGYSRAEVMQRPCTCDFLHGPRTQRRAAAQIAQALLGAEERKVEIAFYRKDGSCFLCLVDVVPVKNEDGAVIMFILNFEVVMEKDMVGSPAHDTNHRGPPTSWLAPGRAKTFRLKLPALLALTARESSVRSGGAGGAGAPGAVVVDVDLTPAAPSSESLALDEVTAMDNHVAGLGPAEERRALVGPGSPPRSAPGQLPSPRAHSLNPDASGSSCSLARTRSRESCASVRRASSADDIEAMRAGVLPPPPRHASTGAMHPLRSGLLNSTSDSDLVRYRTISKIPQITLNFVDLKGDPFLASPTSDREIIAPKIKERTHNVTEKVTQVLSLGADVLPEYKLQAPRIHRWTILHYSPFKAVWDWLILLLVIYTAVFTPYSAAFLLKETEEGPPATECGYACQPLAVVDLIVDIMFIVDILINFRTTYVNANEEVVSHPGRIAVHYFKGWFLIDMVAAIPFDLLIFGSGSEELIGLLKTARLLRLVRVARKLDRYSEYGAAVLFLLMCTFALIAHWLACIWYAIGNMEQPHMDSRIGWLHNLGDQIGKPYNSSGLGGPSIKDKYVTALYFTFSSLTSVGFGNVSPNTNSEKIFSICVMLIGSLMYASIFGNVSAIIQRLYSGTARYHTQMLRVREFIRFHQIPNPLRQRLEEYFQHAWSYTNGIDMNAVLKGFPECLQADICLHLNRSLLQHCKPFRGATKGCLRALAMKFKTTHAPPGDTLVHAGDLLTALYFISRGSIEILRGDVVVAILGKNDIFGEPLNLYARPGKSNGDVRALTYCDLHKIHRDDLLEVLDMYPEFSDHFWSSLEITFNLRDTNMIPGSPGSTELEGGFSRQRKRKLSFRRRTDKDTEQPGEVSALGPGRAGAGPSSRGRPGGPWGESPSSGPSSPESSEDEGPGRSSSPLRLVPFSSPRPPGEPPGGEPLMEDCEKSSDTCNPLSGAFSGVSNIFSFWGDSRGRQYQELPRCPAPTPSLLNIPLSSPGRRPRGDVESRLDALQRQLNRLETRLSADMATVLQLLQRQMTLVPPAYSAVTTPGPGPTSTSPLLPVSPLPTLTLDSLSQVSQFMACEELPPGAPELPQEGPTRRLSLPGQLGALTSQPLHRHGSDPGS
Experimental: This automated patch clamp method (SyncroPatch 384PE) CHO cells stably expressing hERG potassium channels from Sophion Biosciences were used for this test.
The cells were cultured in a humidified and air-controlled (5% C02) incubator at 37° C.
The CHO cells which were at least two days after plating and more than 75% confluent would be used for experiments. Before testing, cells were harvested using TrypLE and resuspended in the physiological solution at the room temperature.
For the electrophysiological recordings the following solutions were used (Table 5). The physiological solution and external solution were prepared at least one month. The intracellular solution was prepared in batches aliquoted, and stored at 4° C. until used.
Exemplary compounds (e.g., as described herein) were dissolved in 100% DMSO to obtain stock solutions for different test concentrations. Then the stock solutions were further diluted into external solution to achieve final concentrations for testing. Visual check for precipitation was conducted before testing. Final DMSO concentration in external solution was not more than 0.30% for the compounds.
From this holding potential of −80 mV, the voltage was first stepped to −50 mV for 80 ms for leak subtraction, and then stepped to +20 mV for 4800 ms to open hERG channels. After that, the voltage was stepped back down to −50 mV for 5000 ms, causing a “rebound” or tail current, which was measured and collected for data analysis. Finally, the voltage was stepped back to the holding potential (−80 mV, 1000 ms). This voltage command protocol was repeated every 20000 msec. This command protocol was performed continuously during the test (vehicle control and test compound).
hERG SyncroPatch assay was conducted at room temperature. The Setup, Prime Chip, Catch and Seal Cells, Amplifier Settings, Voltage and Application Protocols were established with Biomek Software (Nanion).
One addition of 40 μL of the vehicle was applied, followed by 300s for a baseline period. Then the doses of exemplary test compounds were added with 40 μL. The exposure of test compound at each concentration was no less than 300s. […] Five concentrations (0.494 μM, 1.48 μM, 4.44 μM, 13.33 μM and 40.00 μM) were tested for each compound. Minimum 2 replicates per concentration were obtained.
Within each well recording, percent of control values were calculated for each test compound concentration current response based on peak current in presence of reference control (current response/peak current)×100%. The Dose-Response curves were fit to the standard Hill equation as shown below:
Ipost cpd/Ipre cpd=Bottom+(Top−Bottom)/(1+10^((Log IC50−X)*HillSlope))
Where X is the logarithm of concentration, Ipost cpd/Ipre cpd is the normalized peak current amplitude, Top is 1 and Bottom is equal to 0.
Curve-fitting and IC50 calculations were performed by GraphPad Prism 5.0. If the inhibition obtained at the lowest concentration tested was over 50%, or at the highest concentration tested was less than 50%, we reported the IC50 as less than lowest concentration, or higher than highest concentration, respectively.

[5] = CHO cells stably expressing hERG, room temperature, 0.494-40.00 μM, read-out: CHO-hERG Activity Range

T1 sequence (P08546 whole entry): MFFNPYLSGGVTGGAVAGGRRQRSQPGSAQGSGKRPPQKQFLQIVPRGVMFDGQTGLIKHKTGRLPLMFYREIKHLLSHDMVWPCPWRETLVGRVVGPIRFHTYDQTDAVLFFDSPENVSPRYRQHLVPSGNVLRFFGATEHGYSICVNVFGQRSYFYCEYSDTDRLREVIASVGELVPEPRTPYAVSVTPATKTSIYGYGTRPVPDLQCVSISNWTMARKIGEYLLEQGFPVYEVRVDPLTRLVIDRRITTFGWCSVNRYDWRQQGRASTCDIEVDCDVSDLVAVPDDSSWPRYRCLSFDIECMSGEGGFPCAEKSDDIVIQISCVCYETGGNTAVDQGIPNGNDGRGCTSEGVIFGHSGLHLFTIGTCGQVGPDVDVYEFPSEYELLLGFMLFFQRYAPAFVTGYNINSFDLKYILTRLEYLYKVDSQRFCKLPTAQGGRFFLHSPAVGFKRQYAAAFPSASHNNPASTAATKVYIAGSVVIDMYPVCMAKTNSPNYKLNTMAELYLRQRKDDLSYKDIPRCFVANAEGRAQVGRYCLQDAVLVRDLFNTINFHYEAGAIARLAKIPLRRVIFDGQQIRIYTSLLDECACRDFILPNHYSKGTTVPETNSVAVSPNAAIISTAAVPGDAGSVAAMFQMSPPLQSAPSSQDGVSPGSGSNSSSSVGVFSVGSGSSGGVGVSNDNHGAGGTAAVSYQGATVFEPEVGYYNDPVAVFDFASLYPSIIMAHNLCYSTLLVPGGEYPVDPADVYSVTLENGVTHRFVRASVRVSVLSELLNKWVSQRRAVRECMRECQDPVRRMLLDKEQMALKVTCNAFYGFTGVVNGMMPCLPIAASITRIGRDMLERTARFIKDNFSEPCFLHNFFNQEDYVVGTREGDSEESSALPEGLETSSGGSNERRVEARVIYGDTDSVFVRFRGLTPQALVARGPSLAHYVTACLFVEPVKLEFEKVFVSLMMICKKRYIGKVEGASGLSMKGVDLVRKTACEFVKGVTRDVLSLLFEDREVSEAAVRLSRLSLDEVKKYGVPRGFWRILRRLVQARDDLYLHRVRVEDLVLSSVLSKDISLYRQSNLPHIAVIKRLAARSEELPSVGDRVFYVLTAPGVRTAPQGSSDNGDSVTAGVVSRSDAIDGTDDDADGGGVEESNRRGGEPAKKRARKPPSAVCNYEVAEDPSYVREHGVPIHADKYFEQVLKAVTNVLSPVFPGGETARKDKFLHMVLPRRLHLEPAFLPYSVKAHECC

With `CC1(F)CN(C(=O)Cn2c(=O)c(C(=O)NCc3ccc(Cl)cc3)cc3nc(N4CCN(CCNS(C)(=O)=O)C4=O)cnc32)C1` [Compound 16, N-[(4-chlorophenyl)methyl]-5-[2-(3-fluoro-3-methylazetidin-1-yl)-2-oxoethyl]-2-(3-{2-[(methanesulfonyl)amino]ethyl}-2-oxoimidazolidin-1-yl)-6-oxo-5,6-dihydropyrido[2,3-b]pyrazine-7-carboxamide] the IC50 [1] was less than 1 µM, the EC50 [2] was greater than 1 µM and the CC50 at 4 days [3] was greater than 40 µM. The IC50 [4, 5] was greater than 10 µM.

In the case of `CC(=O)NCCN1CCN(c2cnc3c(cc(C(=O)NCc4ccc(Cl)cc4)c(=O)n3CC(=O)N3CC(C)(F)C3)n2)C1=O` [Compound 19], the IC50 [1] is reported as less than 1 µM, the EC50 [2] is reported as greater than 1 µM and the CC50 at 4 days [3] is reported as greater than 40 µM. For the same molecule, the IC50 [4, 5] was greater than 10 µM.

`CN(C)C(=O)CN1CCN(c2cnc3c(cc(C(=O)NCc4ccc(Cl)cc4)c(=O)n3CC(=O)N3CC(C)(F)C3)n2)C1=O` [Compound 21] gave an IC50 [1] of less than 1 µM, an EC50 [2] of less than 1 µM and a CC50 at 4 days [3] greater than 40 µM. It also gave an IC50 [4, 5] greater than 10 µM.

Work on `CC(=O)N(C)CCN1CCN(c2cnc3c(cc(C(=O)NCc4ccc(Cl)cc4)c(=O)n3CC(=O)N3CC(C)(F)C3)n2)C1=O` [Compound 22, 2-(3-{2-[acetyl(methyl)amino]ethyl}-2-oxoimidazolidin-1-yl)-N-[(4-chlorophenyl)methyl]-5-[2-(3-fluoro-3-methylazetidin-1-yl)-2-oxoethyl]-6-oxo-5,6-dihydropyrido[2,3-b]pyrazine-7-carboxamide] yielded an IC50 [1] of less than 1 µM, an EC50 [2] greater than 1 µM and a CC50 at 4 days [3] greater than 40 µM. The IC50 [4, 5] was greater than 10 µM.

With `CC1(F)CN(C(=O)Cn2c(=O)c(C(=O)NCc3ccc(Cl)cc3)cc3nc(N4CCN(CC(=O)NC#N)C4=O)cnc32)C1` [Compound 26, N-[(4-chlorophenyl)methyl]-2-{3-[2-(cyanoamino)-2-oxoethyl]-2-oxoimidazolidin-1-yl}-5-[2-(3-fluoro-3-methylazetidin-1-yl)-2-oxoethyl]-6-oxo-5,6-dihydropyrido[2,3-b]pyrazine-7-carboxamide] the IC50 [1] was less than 1 µM, the EC50 [2] was greater than 1 µM and the CC50 at 4 days [3] was greater than 40 µM. It also gave an IC50 [4, 5] greater than 10 µM.

In the case of `CC1(F)CN(C(=O)Cn2c(=O)c(C(=O)NCc3ccc(Cl)cc3)cc3nc(N4CCN(Cc5nnn[nH]5)C4=O)cnc32)C1` [Compound 27, N-[(4-chlorophenyl)methyl]-5-[2-(3-fluoro-3-methylazetidin-1-yl)-2-oxoethyl]-6-oxo-2-{2-oxo-3-[(1H-tetrazol-5-yl)methyl]imidazolidin-1-yl}-5,6-dihydropyrido[2,3-b]pyrazine-7-carboxamide], the IC50 [1] is reported as less than 1 µM, the EC50 [2] is reported as greater than 1 µM and the CC50 at 4 days [3] is reported as greater than 40 µM. For the same molecule, the IC50 [4, 5] was greater than 10 µM.

Molecule `CC1(F)CN(C(=O)Cn2c(=O)c(C(=O)NCc3ccc(Cl)cc3)cc3nc(N4CCN(CC(=O)N5CCC5)C4=O)cnc32)C1` [Compound 28, 2-{3-[2-(azetidin-1-yl)-2-oxoethyl]-2-oxoimidazolidin-1-yl}-N-[(4-chlorophenyl)methyl]-5-[2-(3-fluoro-3-methylazetidin-1-yl)-2-oxoethyl]-6-oxo-5,6-dihydropyrido[2,3-b]pyrazine-7-carboxamide] has an IC50 [1] of less than 1 µM, an EC50 [2] of less than 1 µM and a CC50 at 4 days [3] greater than 40 µM. It also gave an IC50 [4, 5] greater than 10 µM.

Molecule `NCCN1CCN(c2cnc3c(cc(C(=O)NCc4ccc(Cl)cc4)c(=O)n3CC(=O)N3CC4(CC4)C3)n2)C1=O` [Compound 36, 2-[3-(2-aminoethyl)-2-oxoimidazolidin-1-yl]-5-[2-(5-azaspiro[2.3]hexan-5-yl)-2-oxoethyl]-N-[(4-chlorophenyl)methyl]-6-oxo-5,6-dihydropyrido[2,3-b]pyrazine-7-carboxamide] has an IC50 [1] of less than 1 µM, an EC50 [2] of less than 1 µM and a CC50 at 4 days [3] of 18 µM. The IC50 [4] was greater than 10 µM.

With `CC(C)[C@H](N)C(=O)NCCN1CCN(c2cnc3c(cc(C(=O)NCc4ccc(Cl)cc4)c(=O)n3CC(=O)N3CC(C)(F)C3)n2)C1=O` [Compound 37, N-[(4-chlorophenyl)methyl]-5-[2-(3-fluoro-3-methylazetidin-1-yl)-2-oxoethyl]-6-oxo-2-{2-oxo-3-[2-(L-valylamino)ethyl]imidazolidin-1-yl}-5,6-dihydropyrido[2,3-b]pyrazine-7-carboxamide-hydrochloride salt] the IC50 [1] was greater than 1 µM, the EC50 [2] was less than 1 µM and the CC50 at 4 days ([3]; MRC5 cells, 4 days, CCK8, highest concentration 40 μM, read-out: MCR5 CC50) was greater than 40 µM. It also gave an IC50 [4, 5] greater than 10 µM.
